Experimental data: patent publication US10646479B2, “Use of N-(4-iodobenzoylamino)-5-ethyl-1,2,3,6-tetrahydropyridine as a treatment for cancer” (Florida A&M University, priority 2018, dated 2020)

Legend:
Type in all cases: cell-based, human
MCF-7 cell line = assay: CellTiter-Glo (CTG) luminescent cell viability assay, MCF-7 cells; settings: for IC50: MCF-7 estrogen receptor positive breast cancer cells, CTG viability
Method: (§1) This compound was evaluated against three types of cancer cells: Ishikawa, MDA-MB-231, and MCF-7 using the CellTiter-Glo (CTG) luminescent cell viability assay. Ishikawa cell line is an endometrial adenocarcinoma isolated from a person. MDA-MB-231 is a triple negative breast cancer cell line isolated from a person. MCF-7 is an estrogen receptor positive breast cancer cell line isolated from a person.

MDA-MB-231 cell line = assay: CellTiter-Glo (CTG) luminescent cell viability assay, MDA-MB-231 cells; settings: for IC50: MDA-MB-231 triple negative breast cancer cells, CTG viability
Method: as §1

Ishikawa cell line = assay: CellTiter-Glo (CTG) luminescent cell viability assay, Ishikawa cells; settings: for IC50: Ishikawa endometrial adenocarcinoma cells, CTG viability
Method: as §1

Compound	IC50 (MCF-7 cell line)	IC50 (MDA-MB-231 cell line)	IC50 (Ishikawa cell line)	IC50 (MCF-7 cell line; Homo sapiens, MCF7)	activity compared to Tamoxifen and 4-Hydroxytamoxifen (MCF-7 cell line; MCF-7 cell line)	IC50 (MDA-MB-231 cell line; Homo sapiens)	activity compared to Tamoxifen and 4-Hydroxytamoxifen (MDA-MB-231 cell line; MDA-MB-231 cell line)	IC50 (Ishikawa cell line; Homo sapiens)	activity compared to Tamoxifen and 4-Hydroxytamoxifen (Ishikawa cell line; Ishikawa cell line)
4-Hydroxytamoxifen [reference compound]	6.78 µM	23.1 µM	26.4 µM	–	–	–	–	–	–
CCC1=CCCN(NC(=O)c2ccc(I)cc2)C1 [EH-1-40, N-(4-iodobenzoylamino)-5-ethyl-1,2,3,6-tetrahydropyridine]	–	–	–	1.25 µM	better activity	5.67 µM	better activity	2.93 µM	better activity
